In the assay the target is T1, BT1622^3S-Gal/GalNAc (Bacteroides thetaiotaomicron, UniProt Q8A7A3).
T1 sequence (Q8A7A3 21-500): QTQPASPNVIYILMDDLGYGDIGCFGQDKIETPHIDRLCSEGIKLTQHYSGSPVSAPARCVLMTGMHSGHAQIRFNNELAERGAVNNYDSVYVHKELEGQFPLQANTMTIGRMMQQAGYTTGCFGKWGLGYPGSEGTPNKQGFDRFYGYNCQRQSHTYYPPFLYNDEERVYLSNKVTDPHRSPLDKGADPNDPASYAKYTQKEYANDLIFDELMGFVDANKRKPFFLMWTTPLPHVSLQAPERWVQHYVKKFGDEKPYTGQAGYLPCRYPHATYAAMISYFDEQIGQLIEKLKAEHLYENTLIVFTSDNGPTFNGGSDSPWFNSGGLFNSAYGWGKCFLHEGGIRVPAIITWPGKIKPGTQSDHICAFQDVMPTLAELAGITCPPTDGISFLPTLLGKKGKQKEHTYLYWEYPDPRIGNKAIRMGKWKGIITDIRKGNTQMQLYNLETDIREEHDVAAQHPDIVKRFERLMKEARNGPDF
Nature of the assay: X-ray crystallography. In kind it is binding. Conditions: active site; Ca2+; inactive Ser form; 100 mM ligand.

Results on 1 compound are retold here after PMC9128668 (Nature, 2021).

For the compound `CC(=O)N[C@H]1C(O)O[C@H](CO)[C@H](O)[C@@H]1O` (stereo partly shown) [GalNAc], the X-ray crystallography entry is “BT1622^3S-Gal/GalNAc in complex with GalNAc”.
